Laboratory results: the OligoGym collection
HELM strings list units from the 5' end as sugar, base in round brackets, then linkage (d deoxyribose, r ribose, m 2'-O-methyl, p phosphodiester). Strings are as the collection lists them; they lack the last nucleoside at the 3' end of the tested compound. [moe] = 2'-O-(2-methoxyethyl) (MOE); [sp] = phosphorothioate linkage; [m5C] = 5-methylcytosine

biological target: UBE3A-ATS; experiment: mouse, dose not given; conditions: ASO

Substance | 3 h FOB score [score 0-7]
RNA1{[moe](G)[sp].[moe](A)p.[moe](G)p.[moe]([m5C])p.[moe](T)[sp].d(A)[sp].d(T)[sp].d([m5C])[sp].d(T)[sp].d(G)[sp].d(T)[sp].d(A)[sp].d([m5C])[sp].[moe](A)p.[moe](A)p.[moe](A)[sp].[moe](A)}$$$$ (last 3' nucleoside missing) | 6
RNA1{[moe](G)[sp].[moe](A)p.[moe](G)p.[moe]([m5C])p.[moe](T)p.[moe](A)[sp].d(T)[sp].d([m5C])[sp].d(T)[sp].d(G)[sp].d(T)[sp].d(A)[sp].d([m5C])[sp].d(A)[sp].[moe](A)p.[moe](A)[sp].[moe](A)}$$$$ (last 3' nucleoside missing) | 4.7
RNA1{[moe](G)[sp].[moe](A)p.[moe](G)p.[moe]([m5C])p.[moe](T)p.[moe](A)p.d(T)[sp].d([m5C])[sp].d(T)[sp].d(G)[sp].d(T)[sp].d(A)[sp].d([m5C])[sp].d(A)[sp].d(A)[sp].d(A)[sp].[moe](A)p.[moe](T)[sp].[moe](G)}$$$$ (last 3' nucleoside missing) | 5.2
RNA1{[moe](G)[sp].[moe](A)p.[moe](G)p.[moe]([m5C])p.[moe](T)p.d(A)[sp].d(T)[sp].d([m5C])[sp].d(T)[sp].d(G)[sp].d(T)[sp].d(A)[sp].d([m5C])[sp].d(A)[sp].d(A)[sp].[moe](A)p.[moe](A)p.[moe](T)[sp].[moe](G)}$$$$ (last 3' nucleoside missing) | 6.7
RNA1{[moe](G)[sp].[moe](A)p.[moe](G)p.[moe]([m5C])p.d(T)[sp].d(A)[sp].d(T)[sp].d([m5C])[sp].d(T)[sp].d(G)[sp].d(T)[sp].d(A)[sp].d([m5C])[sp].d(A)[sp].[moe](A)p.[moe](A)p.[moe](A)p.[moe](T)[sp].[moe](G)}$$$$ (last 3' nucleoside missing) | 4.7
RNA1{[moe](G)[sp].[moe](A)p.[moe](T)p.[moe](A)p.[moe](G)p.d(G)[sp].d(G)[sp].d(T)[sp].d(T)[sp].d(T)[sp].d(A)[sp].d(G)[sp].d(G)[sp].d(T)[sp].d([m5C])[sp].[moe](A)p.[moe](A)p.[moe]([m5C])[sp].[moe]([m5C])}$$$$ (last 3' nucleoside missing) | 5
RNA1{[moe](G)[sp].[moe](A)p.[moe](T)p.[moe](T)p.[moe](A)p.d(T)[sp].d([m5C])[sp].d(T)[sp].d([m5C])[sp].d(A)[sp].d(G)[sp].d(A)[sp].d([m5C])[sp].d(A)[sp].d(T)[sp].[moe](G)p.[moe]([m5C])p.[moe]([m5C])[sp].[moe](A)}$$$$ (last 3' nucleoside missing) | 3.2
RNA1{[moe](G)[sp].[moe](A)p.[moe](T)p.[moe](T)p.[moe](G)p.d(A)[sp].d(T)[sp].d([m5C])[sp].d(A)[sp].d(T)[sp].d(G)[sp].d(T)[sp].d(T)[sp].d(A)[sp].d(T)[sp].[moe](G)p.[moe]([m5C])p.[moe]([m5C])[sp].[moe]([m5C])}$$$$ (last 3' nucleoside missing) | 2
RNA1{[moe](G)[sp].[moe](A)p.[moe](T)p.[moe](T)p.[moe](G)p.d(A)[sp].d([m5C])[sp].d(T)[sp].d(A)[sp].d([m5C])[sp].d(T)[sp].d(T)[sp].d([m5C])[sp].d(A)[sp].d(A)[sp].[moe]([m5C])p.[moe]([m5C])p.[moe](T)[sp].[moe](G)}$$$$ (last 3' nucleoside missing) | 1.3
RNA1{[moe](G)[sp].[moe](A)p.[moe](T)p.[moe](T)p.[moe](T)p.d(T)[sp].d(A)[sp].d(T)[sp].d(T)[sp].d(G)[sp].d(G)[sp].d(T)[sp].d([m5C])[sp].d(A)[sp].d(T)[sp].[moe]([m5C])p.[moe](T)p.[moe]([m5C])[sp].[moe](G)}$$$$ (last 3' nucleoside missing) | 6.8
RNA1{[moe](G)[sp].[moe](A)p.[moe](T)p.[moe](T)p.[moe](T)p.d([m5C])[sp].d([m5C])[sp].d(T)[sp].d(T)[sp].d(A)[sp].d([m5C])[sp].d(T)[sp].d(G)[sp].d(A)[sp].d(G)[sp].[moe](T)p.[moe](G)p.[moe](A)[sp].[moe](G)}$$$$ (last 3' nucleoside missing) | 1
RNA1{[moe](G)[sp].[moe](A)p.[moe](T)p.[moe](T)p.[moe]([m5C])p.d(A)[sp].d(A)[sp].d(T)[sp].d(A)[sp].d(G)[sp].d(T)[sp].d(G)[sp].d(T)[sp].d(A)[sp].d(G)[sp].[moe](G)p.[moe](T)p.[moe](G)[sp].[moe](A)}$$$$ (last 3' nucleoside missing) | 3.3
RNA1{[moe](G)[sp].[moe](A)p.[moe](T)p.[moe]([m5C])[sp].d(A)[sp].d([m5C])[sp].d(A)[sp].d(T)[sp].d(T)[sp].d(A)[sp].d([m5C])[sp].d([m5C])[sp].[moe]([m5C])p.[moe](A)p.[moe](T)p.[moe]([m5C])[sp].[moe]([m5C])}$$$$ (last 3' nucleoside missing) | 0
RNA1{[moe](G)[sp].[moe](A)p.[moe](T)p.[moe]([m5C])p.[moe](A)[sp].d([m5C])[sp].d(A)[sp].d(T)[sp].d(T)[sp].d(A)[sp].d([m5C])[sp].d([m5C])[sp].d([m5C])[sp].[moe](A)p.[moe](T)p.[moe]([m5C])[sp].[moe]([m5C])}$$$$ (last 3' nucleoside missing) | 2
RNA1{[moe](G)[sp].[moe](A)p.[moe](T)p.[moe]([m5C])p.[moe](A)p.[moe]([m5C])[sp].d(A)[sp].d(T)[sp].d(T)[sp].d(A)[sp].d([m5C])[sp].d([m5C])[sp].d([m5C])[sp].d(A)[sp].[moe](T)p.[moe]([m5C])[sp].[moe]([m5C])}$$$$ (last 3' nucleoside missing) | 0
RNA1{[moe](G)[sp].[moe](A)p.[moe](T)p.[moe]([m5C])p.[moe](A)p.[moe]([m5C])p.d(A)[sp].d(T)[sp].d(T)[sp].d(A)[sp].d([m5C])[sp].d([m5C])[sp].d([m5C])[sp].d(A)[sp].d(T)[sp].d([m5C])[sp].[moe]([m5C])p.[moe](G)[sp].[moe](T)}$$$$ (last 3' nucleoside missing) | 0
RNA1{[moe](G)[sp].[moe](A)p.[moe](T)p.[moe]([m5C])p.[moe](A)p.d(T)[sp].d(G)[sp].d(T)[sp].d(G)[sp].d([m5C])[sp].d(A)[sp].d(T)[sp].d(A)[sp].d([m5C])[sp].d([m5C])[sp].[moe]([m5C])p.[moe](A)p.[moe](G)[sp].[moe](G)}$$$$ (last 3' nucleoside missing) | 5.7
RNA1{[moe](G)[sp].[moe](A)p.[moe](T)p.[moe]([m5C])p.[moe](A)p.d([m5C])[sp].d(A)[sp].d(T)[sp].d(T)[sp].d(A)[sp].d([m5C])[sp].d([m5C])[sp].d([m5C])[sp].d(A)[sp].d(T)[sp].[moe]([m5C])p.[moe]([m5C])p.[moe](G)[sp].[moe](T)}$$$$ (last 3' nucleoside missing) | 0
RNA1{[moe](G)[sp].[moe](A)p.[moe](T)p.[moe]([m5C])p.[moe](T)p.d(T)[sp].d(G)[sp].d(G)[sp].d(T)[sp].d(A)[sp].d(A)[sp].d(G)[sp].d(G)[sp].d([m5C])[sp].d(A)[sp].[moe](G)p.[moe]([m5C])p.[moe](T)[sp].[moe]([m5C])}$$$$ (last 3' nucleoside missing) | 6.8
RNA1{[moe](G)[sp].[moe](A)p.[moe](T)p.[moe]([m5C])p.d(A)[sp].d([m5C])[sp].d(A)[sp].d(T)[sp].d(T)[sp].d(A)[sp].d([m5C])[sp].d([m5C])[sp].d([m5C])[sp].d(A)[sp].[moe](T)p.[moe]([m5C])p.[moe]([m5C])p.[moe](G)[sp].[moe](T)}$$$$ (last 3' nucleoside missing) | 0
RNA1{[moe](G)[sp].[moe](A)p.[moe]([m5C])p.[moe](T)p.[moe](A)p.d(T)[sp].d([m5C])[sp].d(T)[sp].d([m5C])[sp].d(A)[sp].d(G)[sp].d([m5C])[sp].d(A)[sp].d([m5C])[sp].d(T)[sp].[moe](A)p.[moe](G)p.[moe](G)[sp].[moe](G)}$$$$ (last 3' nucleoside missing) | 2
RNA1{[moe](G)[sp].[moe](A)p.[moe]([m5C])p.[moe](T)p.[moe](A)p.d([m5C])[sp].d(T)[sp].d(T)[sp].d([m5C])[sp].d(A)[sp].d(A)[sp].d([m5C])[sp].d([m5C])[sp].d(T)[sp].d(G)[sp].[moe](A)p.[moe](T)p.[moe](A)[sp].[moe]([m5C])}$$$$ (last 3' nucleoside missing) | 2
RNA1{[moe](G)[sp].[moe](G)p.[moe](A)p.[moe](A)p.[moe](G)p.d(G)[sp].d(A)[sp].d(A)[sp].d(A)[sp].d([m5C])[sp].d(A)[sp].d([m5C])[sp].d(A)[sp].d([m5C])[sp].d(A)[sp].[moe](T)p.[moe](A)p.[moe](A)[sp].[moe](T)}$$$$ (last 3' nucleoside missing) | 0.5
RNA1{[moe](G)[sp].[moe](G)p.[moe](A)p.[moe](G)p.[moe](A)p.d([m5C])[sp].d(A)[sp].d(A)[sp].d(T)[sp].d([m5C])[sp].d(T)[sp].d(A)[sp].d(G)[sp].d(T)[sp].d(T)[sp].[moe](A)p.[moe](G)p.[moe](A)[sp].[moe]([m5C])}$$$$ (last 3' nucleoside missing) | 4
RNA1{[moe](G)[sp].[moe](G)p.[moe](A)p.[moe](G)p.[moe](G)p.d(G)[sp].d(A)[sp].d(G)[sp].d(G)[sp].d(A)[sp].d(A)[sp].d(A)[sp].d(A)[sp].d(T)[sp].d(T)[sp].[moe](A)p.[moe](T)p.[moe](T)[sp].[moe](T)}$$$$ (last 3' nucleoside missing) | 0.5
RNA1{[moe](G)[sp].[moe](G)p.[moe](A)p.[moe](T)p.[moe](G)p.d(G)[sp].d(T)[sp].d(G)[sp].d(T)[sp].d(G)[sp].d(T)[sp].d(A)[sp].d(T)[sp].d(G)[sp].d(T)[sp].[moe](T)p.[moe](A)p.[moe](T)[sp].[moe](G)}$$$$ (last 3' nucleoside missing) | 4.7
RNA1{[moe](G)[sp].[moe](G)p.[moe](A)p.[moe](T)p.[moe](G)p.d(G)[sp].d(T)[sp].d(T)[sp].d(G)[sp].d(A)[sp].d([m5C])[sp].d([m5C])[sp].d(T)[sp].d([m5C])[sp].d(A)[sp].[moe](A)p.[moe](A)p.[moe](A)[sp].[moe](T)}$$$$ (last 3' nucleoside missing) | 3.8
